Reference: patent US6737383B1, “Herbicidal oxadiazolidines” (priority 1999, dated 2004)

Key:
purple nutsedge = assay: Test B pre/postemergence purple nutsedge; format: in vivo, Cyperus rotundus
Procedure, shortened: (§1)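 Herbicidal effect was estimated by eye on a ten-point control scale after plants spent twelve to sixteen days in a greenhouse following soil or foliar treatment. Foliar sprays targeted plants at one to four leaves; all doses were formulated in a non-phytotoxic solvent with surfactant.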

velvetleaf = assay: Test B pre/postemergence velvetleaf; format: in vivo, Abutilon theophrasti
Procedure, shortened: as §1

blackgrass = assay: Test B pre/postemergence blackgrass; format: in vivo, Alopecurus myosuroides
Procedure, shortened: as §1

corn = assay: Test B pre/postemergence corn; format: in vivo, Zea mays
Procedure, shortened: as §1

crabgrass = assay: Test B pre/postemergence crabgrass; format: in vivo, Digitaria sanguinalis
Procedure, shortened: as §1

wild oat = assay: Test B pre/postemergence wild oat; format: in vivo, Avena fatua
Procedure, shortened: as §1

soybean = assay: Test B pre/postemergence soybean; format: in vivo, Glycine max
Procedure, shortened: as §1

giant foxtail = assay: Test B pre/postemergence giant foxtail; format: in vivo, Setaria faberii
Procedure, shortened: as §1

surinam grass = assay: Test B pre/postemergence surinam grass; format: in vivo, Brachiaria decumbens
Procedure, shortened: as §1

pigweed = assay: Test B pre/postemergence pigweed; format: in vivo, Amaranthus retroflexus
Procedure, shortened: as §1

duck salad = assay: Test B flood test duck salad; format: in vivo, Heteranthera limosa; details: for Plant response rating, Ducksalad: scale 0 to 10, 0 is no effect, 10 is complete control; for Ducksalad plant response rating: scale of 0 to 10 where 0 is no effect and 10 is complete control
Procedure, shortened: (§2)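 Plants were grown to the 2-leaf stage before treatment with test chemical, then held in a greenhouse for twelve to sixteen days. Injury was visually rated against untreated controls on a 0–10 scale, where 0 is no effect and 10 is complete control.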

wheat = assay: Test B pre/postemergence wheat; format: in vivo, Triticum aestivum
Procedure, shortened: as §1

cocklebur = assay: Test B pre/postemergence cocklebur; format: in vivo, Xanthium strumarium
Procedure, shortened: as §1

sugar beet = assay: Test B pre/postemergence sugar beet; format: in vivo, Beta vulgaris
Procedure, shortened: as §1

rice = assay: Test B flood test rice; format: in vivo, Oryza sativa; details: for Rice plant response rating: scale of 0 to 10 where 0 is no effect and 10 is complete control
Procedure, shortened: as §2

[1] = Postemergence, Rate 250 g/ha, scale 0 to 10, 0 is no effect, 10 is complete control
[2] = Postemergence, Rate 500 g/ha, scale of 0 to 10 where 0 is no effect and 10 is complete control
[3] = Preemergence, Rate 62 g/ha, scale 0 to 10 (0 no effect, 10 complete control)
[4] = Preemergence, Rate 125 g/ha, scale of 0 to 10 where 0 is no effect and 10 is complete control
[5] = Preemergence, Rate 250 g/ha, scale 0 to 10, 0 is no effect, 10 is complete control
[6] = Preemergence, Rate 500 g/ha, scale 0 to 10, 0 is no effect, 10 is complete control
[7] = Rate 62 g/ha, Postemergence, scale of 0 to 10 where 0 is no effect and 10 is complete control
[8] = Postemergence, Rate 125 g/ha, scale 0 to 10, 0 is no effect, 10 is complete control
[9] = Preemergence, Rate 250 g/ha, scale of 0 to 10 where 0 is no effect and 10 is complete control
[10] = Postemergence section (flood test species), Rate 500 g/ha
[11] = Rate 62 g/ha, Postemergence (flood test species)

Q: What does the source list for `CC(C)N(C(=O)n1oc(=O)n(CCC(F)(F)F)c1=O)c1ccc(F)cc1` [Compound 397]?
A: Plant response rating, Nutsedge (purple nutsedge; [1]): 0; Nutsedge plant response rating (purple nutsedge; [2]): 0; Plant response rating, Nutsedge (purple nutsedge; [3]): 0; Plant response rating, Nutsedge (purple nutsedge; [4]): 0; Nutsedge plant response rating (purple nutsedge; [5]): 0; Nutsedge plant response rating (purple nutsedge; [6]): 0; Nutsedge plant response rating (purple nutsedge; [7]): 0; Plant response rating, Velvetleaf (velvetleaf; [1]): 0; Velvetleaf plant response rating (velvetleaf; [2]): 0; Plant response rating, Velvetleaf (velvetleaf; [3]): 0; Plant response rating, Velvetleaf (velvetleaf; [4]): 2; Velvetleaf plant response rating (velvetleaf; [5]): 6; Velvetleaf plant response rating (velvetleaf; [6]): 6; Velvetleaf plant response rating (velvetleaf; [7]): 0; Plant response rating, Blackgrass (blackgrass; [8]): 8; Plant response rating, Blackgrass (blackgrass; [1]): 9; Blackgrass plant response rating (blackgrass; [2]): 9; Plant response rating, Blackgrass (blackgrass; [3]): 7; Plant response rating, Blackgrass (blackgrass; [4]): 9; Blackgrass plant response rating (blackgrass; [9]): 10; Blackgrass plant response rating (blackgrass; [6]): 10; Blackgrass plant response rating (blackgrass; [7]): 6; Plant response rating, Corn (corn; [8]): 0; Plant response rating, Corn (corn; [1]): 0; Corn plant response rating (corn; [2]): 0; Plant response rating, Corn (corn; [3]): 0; Plant response rating, Corn (corn; [4]): 0; Corn plant response rating (corn; [5]): 3; Corn plant response rating (corn; [6]): 8; Corn plant response rating (corn; [7]): 0; Plant response rating, Crabgrass (crabgrass; [8]): 6; Plant response rating, Crabgrass (crabgrass; [1]): 9; Crabgrass plant response rating (crabgrass; [2]): 9; Plant response rating, Crabgrass (crabgrass; [3]): 10; Plant response rating, Crabgrass (crabgrass; [4]): 10; Crabgrass plant response rating (crabgrass; [5]): 10; Crabgrass plant response rating (crabgrass; [6]): 10; Crabgrass plant response rating (crabgrass; [7]): 2; Wild oats plant response rating (wild oat; [2]): 5; Plant response rating, Wild oats (wild oat; [3]): 2; Plant response rating, Wild oats (wild oat; [4]): 5; Wild oats plant response rating (wild oat; [5]): 7; Wild oats plant response rating (wild oat; [6]): 10; Wild oats plant response rating (wild oat; [7]): 0; Plant response rating, Soybean (soybean; [1]): 5; Soybean plant response rating (soybean; [2]): 6; Plant response rating, Soybean (soybean; [3]): 0; Plant response rating, Soybean (soybean; [4]): 0; Soybean plant response rating (soybean; [5]): 0; Soybean plant response rating (soybean; [6]): 0; Soybean plant response rating (soybean; [7]): 3; Plant response rating, Giant foxtail (giant foxtail; [8]): 8; Plant response rating, Giant foxtail (giant foxtail; [1]): 9; Giant foxtail plant response rating (giant foxtail; [2]): 9; Plant response rating, Giant foxtail (giant foxtail; [3]): 10; Plant response rating, Giant foxtail (giant foxtail; [4]): 10; Giant foxtail plant response rating (giant foxtail; [5]): 10; Giant foxtail plant response rating (giant foxtail; [6]): 10; Giant foxtail plant response rating (giant foxtail; [7]): 8; Plant response rating, B. signalgrass (surinam grass; [8]): 0; Plant response rating, B. signalgrass (surinam grass; [1]): 2; B. signalgrass plant response rating (surinam grass; [2]): 8; Plant response rating, B. signalgrass (surinam grass; [3]): 3; Plant response rating, B. signalgrass (surinam grass; [4]): 6; B. signalgrass plant response rating (surinam grass; [9]): 9; B. signalgrass plant response rating (surinam grass; Preemergence, Rate 500 g/ha, scale of 0 to 10 where 0 is no effect and 10 is complete control): 10; B. signalgrass plant response rating (surinam grass; [7]): 0; Plant response rating, Redroot pigweed (pigweed; [1]): 4; Redroot pigweed plant response rating (pigweed; [2]): 6; Plant response rating, Redroot pigweed (pigweed; [3]): 8; Plant response rating, Redroot pigweed (pigweed; [4]): 8; Redroot pigweed plant response rating (pigweed; [5]): 10; Redroot pigweed plant response rating (pigweed; [6]): 10; Redroot pigweed plant response rating (pigweed; [7]): 0; Plant response rating, Ducksalad (duck salad; Postemergence (flood test), Rate 125 g/ha): 0; Ducksalad plant response rating (duck salad; [10]): 0; Ducksalad plant response rating (duck salad; [11]): 0; Plant response rating, Ducksalad (duck salad; flood test species, listed under Postemergence, Rate 250 g/ha): 0; Wheat plant response rating (wheat; [2]): 4; Plant response rating, Wheat (wheat; [3]): 0; Plant response rating, Wheat (wheat; [4]): 0; Wheat plant response rating (wheat; [5]): 2; Wheat plant response rating (wheat; [6]): 3; Wheat plant response rating (wheat; [7]): 0; Plant response rating, Cocklebur (cocklebur; [8]): 0; Plant response rating, Cocklebur (cocklebur; [1]): 0; Cocklebur plant response rating (cocklebur; [2]): 0; Plant response rating, Cocklebur (cocklebur; [3]): 0; Plant response rating, Cocklebur (cocklebur; [4]): 0; Cocklebur plant response rating (cocklebur; [5]): 0; Cocklebur plant response rating (cocklebur; [6]): 0; Cocklebur plant response rating (cocklebur; [7]): 0; Plant response rating, Sugarbeets (sugar beet; [1]): 0; Sugarbeets plant response rating (sugar beet; [2]): 0; Plant response rating, Sugarbeets (sugar beet; [3]): 0; Plant response rating, Sugarbeets (sugar beet; [4]): 4; Sugarbeets plant response rating (sugar beet; [5]): 7; Sugarbeets plant response rating (sugar beet; [6]): 9; Sugarbeets plant response rating (sugar beet; [7]): 0; Rice plant response rating (rice; [10]): 0; Rice plant response rating (rice; [11]): 0; Plant response rating, Rice (rice; flood test species, listed under Postemergence, Rate 250 g/ha, scale 0 to 10, 0 is no effect, 10 is complete control): 0
